Source: patent publication US20160158179A1, “NANOEMULSION THERAPEUTIC COMPOSITIONS AND METHODS OF USING THE SAME” (THE REGENTS OF THE UNIVERSITY OF MICHIGAN, priority 2008, published 2016)
≈ marks a conversion by molar mass, not a printed value.

Experiments:
Acinetobacter baumannii [1] = assay: MIC and MBC determination (CLSI, alamar blue)
[2] = test system: H. influenzae clinical isolates; assay: MIC and MBC susceptibility assays (CLSI); format: cell-based, Haemophilus influenzae
Burkholderia cenocepacia = assay: MIC and MBC determination (CLSI, alamar blue), CF isolates
[3] = test system: Stenotrophomonas maltophilia; assay: as above
[4] = test system: Pseudomonas, Burkholderia, Acinetobacter and Stenotrophomonas; assay: MIC and MBC determination (CLSI, alamar blue), all strains of Example 8
Pseudomonas aeruginosa [5] = assay: MIC and MBC determination (CLSI, alamar blue), CF isolates
[6] = test system: H. influenzae clinical isolates; conditions: ATCC H. influenzae 49247 quality control isolate; acceptable QC range; cited from earlier work
[7] = test system: Stenotrophomonas maltophilia; assay: MIC determination, CLSI microdilution with alamar blue; format: cell-based
Acinetobacter baumannii [8] = assay: as above; format: cell-based
[9] = test system: IL1-β, IL-6, TNF-α, CINC-1, CINC-3, IL-10 and TGF-β; assay: Dermal cytokine analysis (ELISA) of burn wound skin; format: in vivo, Sprague-Dawley rats
Method: After drying, an occlusive dressing of sterile […] […] Stock nanoemulsion […] […] The occlusive dressing and TELFA was removed. […] Homogenates were centrifuged at 3000 g for 5 minutes and the supernatants collected and stored frozen at -80° C. until use. Rat IL1-β, IL-6, […]-10 and TGF-β were measured by sandwich enzyme-linked immunosorbent assay (ELISA) using antibodies and reagents from R&D Systems, Inc. (Minneapolis, Minn.). The assay was carried out in 96-well microplates (Immunoplate Maxisorb, Nunc, Neptune, N.J.) according to the kit instructions and samples were read using a microplate reader (Biotek Instruments, Winooski, Vt.) at 450 nm with a wavelength correction of 540 nm. Cytokine concentrations were determined using the plate reader software and a 7-point standard curve. Results were adjusted for previous dilution and expressed as pg/mL.

Myeloperoxidase = assay: Detection of neutrophil sequestration (myeloperoxidase assay); format: in vivo, Sprague-Dawley rats; conditions: infected burn wound, 32 hours post-injury
Method: The occlusive dressing and TELFA was removed.
100 mg of skin tissue was mechanically homogenized in 1 mL ice cold potassium phosphate buffer consisting of 115 mM monobasic potassium phosphate (Sigma Aldrich, Milwaukee, Wis.). Homogenates were centrifuged at 3000 g for 10 min at 4° C., the supernatants were removed and the pellets were re-suspended in 1 mL C-TAB buffer consisting of dibasic potassium phosphate, cetyltrimethylammonium bromide, and acetic acid (Sigma Aldrich, Milwaukee, Wis.). The suspensions were sonicated (Branson Sonifier 250, Danbury, Conn.) on ice for 40 seconds. Homogenates were centrifuged at 3000 g for 10 min at 4° C. and the supernatant collected. Supernatants were incubated in 60° C. water bath for 2 hours (Shaker Bath, 2568; Forma Scientific, Marietta, Ohio). Samples were stored at −80° C. until needed or assayed immediately.

Acinetobacter strains = assay: Checkerboard synergy study (FIC/FBC index); format: cell-based, Acinetobacter baumannii; conditions: in combination with P4075EC+EDTA
Burkholderia strains = assay: Checkerboard synergy study (FIC/FBC index); format: cell-based, Burkholderia cenocepacia; conditions: in combination with P4075EC+EDTA
Stenotrophomonas strains = assay: Checkerboard synergy study (FIC/FBC index); format: cell-based, Stenotrophomonas maltophilia; conditions: in combination with P4075EC+EDTA
Pseudomonas aeruginosa [10] = assay: MIC determination, CLSI microdilution with alamar blue; format: cell-based; conditions: Pseudomonas aeruginosa (n = 5); nanoemulsions in the presence of 5 mM EDTA; in µg/mL
[11] = share of 10 Acinetobacter strains with synergy
[12] = share of 10 Burkholderia strains with synergy
[13] = share of 10 Stenotrophomonas strains with synergy

## CO/N=C(\C(=O)N[C@@H]1C(=O)N2C(C(=O)[O-])=C(C[N+]3(C)CCCC3)CS[C@H]12)c1csc(N)n1 [Cefepime]
Acinetobacter baumannii [1]; Acinetobacter
  MIC 50: 32 µg/mL (≈ 66.6 µM)
  MIC 90: >32 µg/mL
Acinetobacter baumannii [1]; Acinetobacter baumannii
  MIC 50: 32 µg/mL (≈ 66.6 µM)
  MIC 90: > 32 µg/mL
[2]
  susceptibility of the majority of isolates by MIC90 values: susceptible
[2]; Haemophilus influenzae, all H. influenzae strains of Table 6, control antibiotics
  MIC 50: 0.125 µg/mL (≈ 0.26 µM)
Burkholderia cenocepacia; Burkholderia
  MIC 90: >32 µg/mL
Burkholderia cenocepacia; Burkholderia cenocepacia
  MIC 50: 32 µg/mL (≈ 66.6 µM)
  MIC 90: > 32 µg/mL
[3]; Stenotrophomonas
  MIC 50: >32 µg/mL
  MIC 90: >32 µg/mL
[3]; Stenotrophomonas maltophilia
  MIC 90: > 32 µg/mL
[4]
  MIC 90: ≥ 2 µg/mL
[4]; read-out: MBC90
  MBC: > 32 µg/mL
Pseudomonas aeruginosa [5]; Pseudomonas
  MIC 50: 2 µg/mL (≈ 4.16 µM)
  MIC 90: 32 µg/mL (≈ 66.6 µM)
[6]
  QC MIC range: C (QC MIC range is 0.5-2) μg/ml

## O=C(O)CN(CCN(CC(=O)O)CC(=O)O)CC(=O)O [EDTA, ethylenediaminetetraacetic acid]
[7]; S. maltophilia (n = 5)
  number of strains inhibited by EDTA alone: 5
[2]; EDTA alone
  EDTA concentration inhibiting growth of H. influenzae: ≥ 2 mM
Acinetobacter baumannii [8]; A. baumannii (n = 5)
  number of strains inhibited by EDTA alone: 3

## NCc1ccc(S(N)(=O)=O)cc1 [Sulfamylon, mafenide acetate]
[9]; 32 hours
  level of IL-10 or TGF-β in the infected burn wound: did not suppress
[9]; infected burn wound
  dermal levels of proinflammatory cytokines IL-6, TNF-α, CINC-1 or CINC-3 compared to controls: did not result in any significant alteration
Myeloperoxidase
  myeloperoxidase: 0.08 ± 0.02 µg/mL

## Colistin
[7]; Stenotrophomonas maltophilia (n = 5), nanoemulsions in the presence of 5 mM EDTA, in µg/mL
  MIC Range: <=0.5-1
Acinetobacter baumannii [1]; 10 CF Acinetobacter isolates
  MBC 50: 4 µg/mL
  MBC 90: >16 µg/mL
  MIC 50: 1 µg/mL
  MIC 90: 1 µg/mL
Acinetobacter baumannii [1]; A. baumannii
  MBC 90: > 16 µg/mL
  MIC 90: 1 µg/mL
Acinetobacter baumannii [1]; Acinetobacter
  MBC 50: 4 µg/mL
  MBC 90: >16 µg/mL
  MIC 50: 1 µg/mL
  MIC 90: 1 µg/mL
Burkholderia cenocepacia; B. cenocepacia
  MBC 90: > 32 µg/mL
  MIC 90: > 32 µg/mL
Burkholderia cenocepacia; Burkholderia
  MBC 50: >32 µg/mL
  MBC 90: >32 µg/mL
  MIC 50: >32 µg/mL
  MIC 90: >32 µg/mL
Burkholderia cenocepacia; CF Burkholderia isolate NB26
  MIC: >32 µg/mL
Acinetobacter strains; Acinetobacter
  Overall synergy result: No Interference
Acinetobacter strains; isolate NB31
  FIC: 0.83
  Synergy (FBC): indifferent
  Synergy (FIC): indifferent
Acinetobacter strains; isolate NB32
  FIC: 0.58
  Synergy (FBC): indifferent
  Synergy (FIC): indifferent
Acinetobacter strains; isolate NB33
  FBC: 2
  FIC: 0.33
  Synergy (FBC): indifferent
  Synergy (FIC): yes
Acinetobacter strains; isolate NB34
  FBC: 1.10
  FIC: 0.46
  Synergy (FBC): indifferent
  Synergy (FIC): yes
Acinetobacter strains; isolate NB35
  FBC: 0.97
  FIC: 0.72
  Synergy (FBC): indifferent
  Synergy (FIC): indifferent
Acinetobacter strains; isolate NB36
  FBC: 2
  FIC: 0.56
  Synergy (FBC): indifferent
  Synergy (FIC): indifferent
Acinetobacter strains; isolate NB37
  FBC: 1.00
  FIC: 0.63
  Synergy (FBC): indifferent
  Synergy (FIC): indifferent
Acinetobacter strains; isolate NB38
  FBC: 0.68
  FIC: 0.77
  Synergy (FBC): indifferent
  Synergy (FIC): indifferent
Acinetobacter strains; isolate NB39
  FIC: 0.72
  Synergy (FBC): indifferent
  Synergy (FIC): indifferent
Acinetobacter strains; isolate NB40
  FBC: 0.91
  FIC: 0.63
  Synergy (FBC): indifferent
  Synergy (FIC): indifferent
Acinetobacter strains; [11]
  % FBC Synergy: 0%
  % FIC Synergy: 20%
[3]; S. maltophilia
  MBC 90: > 32 µg/mL
  MIC 90: > 32 µg/mL
[3]; Stenotrophomonas
  MBC 50: >32 µg/mL
  MBC 90: >32 µg/mL
  MIC 50: 16 µg/mL
  MIC 90: >32 µg/mL
Burkholderia strains; Burkholderia
  Overall synergy result: No Interference
Burkholderia strains; isolate NB21
  Synergy (FBC): indifferent
  Synergy (FIC): indifferent
Burkholderia strains; isolate NB22
  Synergy (FBC): indifferent
  Synergy (FIC): indifferent
Burkholderia strains; isolate NB23
  FBC: 2.00
  Synergy (FBC): indifferent
  Synergy (FIC): indifferent
Burkholderia strains; isolate NB24
  FBC: 2.00
  Synergy (FBC): indifferent
  Synergy (FIC): indifferent
Burkholderia strains; isolate NB25
  FBC: 3.00
  FIC: 2.00
  Synergy (FBC): indifferent
  Synergy (FIC): indifferent
Burkholderia strains; isolate NB26
  FBC: 0.04
  FIC: 0.56
  Synergy (FBC): yes
  Synergy (FIC): yes
Burkholderia strains; isolate NB27
  Synergy (FBC): indifferent
  Synergy (FIC): indifferent
Burkholderia strains; isolate NB28b
  FIC: 0.29
  Synergy (FBC): indifferent
  Synergy (FIC): yes
Burkholderia strains; isolate NB29
  Synergy (FBC): indifferent
  Synergy (FIC): indifferent
Burkholderia strains; isolate NB30
  FIC: 0.02
  Synergy (FBC): indifferent
  Synergy (FIC): yes
Burkholderia strains; [12]
  % FBC Synergy: 10%
  % FIC Synergy: 30%
Pseudomonas aeruginosa [5]; P. aeruginosa
  MBC 90: 8 µg/mL
  MIC 90: 2 µg/mL
Pseudomonas aeruginosa [5]; Pseudomonas
  MBC 50: 4 µg/mL
  MBC 90: 8 µg/mL
  MIC 50: 2 µg/mL
  MIC 90: 2 µg/mL
Acinetobacter baumannii [8]; Acinetobacter baumannii (n = 5), nanoemulsions in the presence of 5 mM EDTA, in µg/mL
  MIC Range: <=0.5-2
Stenotrophomonas strains; Stenotrophomonas
  Overall synergy result: Synergy
Stenotrophomonas strains; isolate NB42
  FIC: 0.08
  Synergy (FBC): indifferent
  Synergy (FIC): yes
Stenotrophomonas strains; isolate NB43
  FBC: 0.15
  FIC: 0.08
  Synergy (FBC): yes
  Synergy (FIC): yes
Stenotrophomonas strains; isolate NB44
  FBC: 0.57
  Synergy (FBC): indifferent
  Synergy (FIC): indifferent
Stenotrophomonas strains; isolate NB45
  FBC: 0.45
  FIC: 0.04
  Synergy (FBC): yes
  Synergy (FIC): yes
Stenotrophomonas strains; isolate Steno 1
  Synergy (FBC): yes and indifferent
  Synergy (FIC): yes and indifferent
Stenotrophomonas strains; isolate Steno 2
  Synergy (FBC): yes and indifferent
  Synergy (FIC): yes
Stenotrophomonas strains; isolate Steno 3
  Synergy (FBC): yes and indifferent
  Synergy (FIC): yes and indifferent
Stenotrophomonas strains; isolate Steno 4
  FBC: 1.61
  Synergy (FBC): indifferent
  Synergy (FIC): yes and indifferent
Stenotrophomonas strains; isolate Steno 6
  Synergy (FBC): yes and indifferent
  Synergy (FIC): yes and indifferent
Stenotrophomonas strains; isolate Steno 8
  Synergy (FBC): yes and indifferent
  Synergy (FIC): yes and indifferent
Stenotrophomonas strains; [13]
  % FBC Synergy: 70%
  % FIC Synergy: 90%
Pseudomonas aeruginosa [10]
  MIC Range: <=0.5-2

## Gentamicin
Pseudomonas aeruginosa [10]
  MIC Range: <=2-4
